Measured values taken from patent US20120142676A1, “Oxathiazine and dithiine oxides as inhibitors of sulfhydryl-dependent biomolecules” (priority 2010, published 2012).
Like-named read-outs stand apart in the source and are kept apart here.

What was measured:
[1] = biological target: T1, human topoisomerase IIα (Homo sapiens, UniProt P11388); assay: Topoisomerase IIα decatenation inhibition assay; assay type: biochemical; settings: K562 cells nuclear extract, kDNA decatenation; for inhibition at 3 µM / inhibition at 30 µM: read-out: % Inhibition of topoisomerase II catalytic activity
T1 construct: 300 ng K562 cells nuclear extract, the amount that gave 80% decatenation; endogenous in cells; host or cells: K562 cells nuclear extract
Procedure: The catalytic inhibition of human topoisomerase IIα by a drug was measured by the ATP-dependent decatenation of kDNA (Topogen, Columbus, Ohio) into minicircles of DNA as we previously described (Hasinoff 1995 QSAR ICRF-187). The 20 μl reaction mixture contained 0.5 mM ATP, 50 mM Tris-HCl (pH 8.0), 120 mM KCl, 10 mM MgCl2, 30 μg/ml bovine serum albumin, 40 ng kDNA, drug or DMSO (0.5 μl) and 300 ng K562 cells nuclear extract, the amount that gave 80% decatenation. The enzymatic reaction was carried out at 37° C. and was terminated by the addition of 6 μl of buffer containing 5 mM Tris pH 8.0, 30% w/v sucrose, 0.5% bromophenol blue, and 125 mM EDTA. The resulting mixture was separated by electrophoresis (2 h at 8 V/cm) on an agarose gel prepared from 1.2% w/v agarose and 0.5 μg/ml ethidium bromide in TAE buffer pH 8.0 (40 mM Tris base, 0.114% (v/v) glacial acetic acid, 2 mM EDTA). The DNA in the gel was imaged by its fluorescence on an Alpha Annotech Fluorchem 8900 imaging system equipped with a 365 nm illuminator and a CCD camera. Densitometry scanning of gel photographs was used to obtain the fluorescence intensity of the band corresponding to the DNA minicircles. The percentage inhibition of K562 topoisomerase II catalytic activity at concentrations of 3 and 30 μM was determined using the following equation: % Inhibition=[(1−(Bdrug−Bbackground)/Bdmso]×100, where Bdrug is the band intensity value for the enzymatic reaction sample treated with drug, Bbackground is the band intensity value for sample without the enzyme, and Bdmso is the band intensity value for the enzymatic reaction sample treated with DMSO solvent only.

[2] = system: human leukemia K562 cells; assay: K562 cell growth inhibition assay (MTS); assay type: cell-based; settings: 72 h incubation, read-out: Median growth inhibitory concentration (IC50) of K562 cells
Procedure: K562 cells were obtained from American Type Culture Collection (Rockville, Md.). These cells were maintained as suspension cultures in alpha minimum essential medium (αMEM) (Gibco BRL, Burlington, Canada) containing 2 mM L-glutamine and supplemented with 10% fetal calf serum (Invitrogen, Burlington, ON, Canada), 20 mM NaHCO3, 20 mM HEPES (Sigma), 100 units/ml penicillin G, and 100 μg/ml streptomycin at pH 7.4 in an atmosphere of 5% CO2 and 95% air at 37° C. For the measurement of growth inhibition, cells in exponential growth were harvested and seeded at 6000 cells/well in 96-well plates (100 μl/well). Drugs were dissolved in DMSO and added to the wells such that the final concentration of DMSO was 0.5% (v/v). After 72 h incubation, 7 μl of 3-(4,5-dimethylthiazol-2-yl)-5-(3-carboxymethoxyphenyl)-2-(4-sulfophenyl)-2H-tetrazolium (MTS) Cell Titer 96® AQueous One Solution (Promega, Md., WI) was added to each well and incubated for a further 3 h. The absorbance was measured in a Molecular Devices (Menlo Park, Calif.) plate reader. The spectrophotometric 96-well plate cell growth inhibition assay measures the ability of the cells to enzymatically reduce MTS. Three replicates were measured at each drug concentration, and the IC50 values and their SEs for growth inhibition were obtained by fitting the absorbance-drug concentration data to a four-parameter logistic equation.

T1 sequence (P11388 whole entry): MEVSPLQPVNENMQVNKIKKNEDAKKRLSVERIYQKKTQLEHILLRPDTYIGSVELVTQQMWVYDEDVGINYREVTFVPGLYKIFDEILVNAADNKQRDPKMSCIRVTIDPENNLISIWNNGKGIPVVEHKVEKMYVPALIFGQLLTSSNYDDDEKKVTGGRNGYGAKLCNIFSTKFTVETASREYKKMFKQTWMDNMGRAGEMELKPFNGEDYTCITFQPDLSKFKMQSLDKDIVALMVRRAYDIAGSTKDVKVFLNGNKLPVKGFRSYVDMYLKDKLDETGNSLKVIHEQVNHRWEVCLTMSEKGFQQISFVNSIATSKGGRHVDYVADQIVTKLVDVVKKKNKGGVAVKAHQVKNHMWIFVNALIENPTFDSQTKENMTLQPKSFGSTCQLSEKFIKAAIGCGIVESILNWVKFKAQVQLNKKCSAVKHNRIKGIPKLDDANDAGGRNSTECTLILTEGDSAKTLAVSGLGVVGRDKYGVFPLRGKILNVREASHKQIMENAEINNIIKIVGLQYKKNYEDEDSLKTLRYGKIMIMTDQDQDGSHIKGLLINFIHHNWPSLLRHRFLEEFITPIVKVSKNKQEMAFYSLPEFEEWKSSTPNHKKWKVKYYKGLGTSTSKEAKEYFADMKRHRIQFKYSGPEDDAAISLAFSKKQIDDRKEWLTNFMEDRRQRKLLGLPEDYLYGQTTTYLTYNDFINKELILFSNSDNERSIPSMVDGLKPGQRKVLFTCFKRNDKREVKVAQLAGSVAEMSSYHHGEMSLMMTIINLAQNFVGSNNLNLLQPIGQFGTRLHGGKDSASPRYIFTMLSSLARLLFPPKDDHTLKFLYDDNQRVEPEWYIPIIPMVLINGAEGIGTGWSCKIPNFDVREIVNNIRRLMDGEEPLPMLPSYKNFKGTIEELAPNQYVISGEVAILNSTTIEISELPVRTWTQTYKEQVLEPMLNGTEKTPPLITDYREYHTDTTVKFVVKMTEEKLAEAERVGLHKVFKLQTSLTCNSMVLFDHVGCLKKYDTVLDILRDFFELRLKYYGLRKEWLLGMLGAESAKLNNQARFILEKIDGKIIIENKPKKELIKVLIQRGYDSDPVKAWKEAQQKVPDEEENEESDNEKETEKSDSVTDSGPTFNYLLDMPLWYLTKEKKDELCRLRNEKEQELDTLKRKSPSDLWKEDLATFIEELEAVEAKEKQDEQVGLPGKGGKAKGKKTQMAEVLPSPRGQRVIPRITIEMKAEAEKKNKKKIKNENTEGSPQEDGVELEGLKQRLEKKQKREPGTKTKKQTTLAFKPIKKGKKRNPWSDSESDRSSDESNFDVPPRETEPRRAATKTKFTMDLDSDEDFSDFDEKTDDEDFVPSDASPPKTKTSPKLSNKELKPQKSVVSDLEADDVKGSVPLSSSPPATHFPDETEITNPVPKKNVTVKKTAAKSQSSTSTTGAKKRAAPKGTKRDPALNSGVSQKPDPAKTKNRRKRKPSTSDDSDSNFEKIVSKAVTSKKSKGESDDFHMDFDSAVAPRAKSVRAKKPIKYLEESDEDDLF

Compound | inhibition at 3 µM ([1]; 3 μM) [%] | inhibition at 30 µM ([1]; 30 μM) [%] | IC50 ([2]; Homo sapiens, K562, 72 h) [nM] | melting point [°C] | % Inhibition of topoisomerase II catalytic activity ([1]; 3 μM) [%] | % Inhibition of topoisomerase II catalytic activity ([1]; 30 μM) [%] | IC50 [2] [nM]
CC1=C(COc2ccccc2)S(=O)(=O)CCS1(=O)=O [compound 21, 2-methyl-3-(phenoxymethyl)-5,6-dihydro-1λ^6,4λ^6-dithiine-1,1,4,4-tetrone] | 100 | 100 | 600 |  |  |  | 
[O-][S+]1CCON=C1c1nnc(-c2cccc(Cl)c2)o1 (stereo not shown) [compound 8, 3-[5-(3-chlorophenyl)-1,3,4-oxadiazol-2-yl]-5,6-dihydro-1,4λ^4,2-oxathiazin-4-one] | 80 | 100 | 4000 | 208 to 210 |  |  | 
CCOC(=O)C1=C(c2ccccc2)S(=O)(=O)CCS1(=O)=O [compound 17, ethyl 1,1,4,4-tetraoxo-3-phenyl-5,6-dihydro-1λ^6,4λ^6-dithiine-2carboxylate] | 100 | 100 | 3000 | 190 to 191 |  |  | 
O=C(Nc1ccccc1)C1=C(C(F)(F)F)S(=O)(=O)CCS1(=O)=O [compound 25, 1,1,4,4-tetraoxo-N-phenyl-3-(trifluoromethyl)-5,6-dihydro-1λ^6,4λ^6-dithiine-2-carboxamide] | 100 | 100 | 4000 | 217 to 219 |  |  | 
CC1C[S+]([O-])C(c2cc3ccccc3s2)=NO1 (stereo not shown) [compound 11] |  |  |  |  | 100 | 100 | 2000
O=C(Nc1ccccc1)C1=NOCCS1(=O)=O [compound 4, 4,4-dioxo-N-phenyl-5,6-dihydro-1, 4λ^6,2-oxathiazine-3-carboxamide] | 100 | 100 | 700 | 206 to 207 |  |  | 
Cc1ccc2sc(C3=NOCC[S+]3[O-])c(C)c2c1 (stereo not shown) [compound 12] |  |  |  |  | 100 | 100 | 700
CCOC(=O)c1ccc(C2=NOCC[S+]2[O-])s1 (stereo not shown) [compound 7] |  |  |  |  | 100 | 100 | 900
[O-][S+]1CCON=C1c1sc2ccccc2c1Br (stereo not shown) [compound 13, 3-(3-bromo-1-benzothiophen-2-yl)-5,6-dihydro-1,4λ^4,2-oxathiazin-4-one] | 100 | 100 | 1000 |  |  |  | 
O=S1(=O)CCON=C1c1cc2ccccc2s1 [compound 10] |  |  |  |  | 100 | 100 | 500
CC1=C(COc2ccccc2)S(=O)(=O)CCS1(=O)=O [compound 2] |  |  |  |  | 100 | 100 | 1000
CCCCC1=C(c2ccccc2)S(=O)(=O)CCS1(=O)=O [compound 18] |  |  |  |  | 70 | 100 | 5000
CCOC(=O)C1=C(C(=O)OCC)S(=O)(=O)CCS1(=O)=O [compound 1] |  |  |  | 68 to 70 | 70 | 100 | 11000
COCC1=C(COC)S(=O)(=O)CCS1(=O)=O [compound 23] |  |  |  |  | 100 | 100 | 2300
O=C(Nc1ccccc1)C1=NOCC[S+]1[O-] (stereo not shown) [compound 3, 4-oxo-5,6-dihydro-N-phenyl-1,4λ^4,2-oxathiazine-3-carboxamide] | 100 | 100 | 1000 | 150 to 154 |  |  | 
CC1C(C)S(=O)(=O)C(c2ccccc2)=CS1(=O)=O (stereo not shown) [compound 19] |  |  |  |  | 100 | 100 | 4000
O=S1(=O)CCON=C1C1=Cc2ccccc2S1(=O)=O [compound 15] |  |  |  |  | 100 | 100 | 500
CCOC(=O)C1=C(C(F)(F)F)S(=O)(=O)CCS1(=O)=O [compound 24, ethyl 1,1,4,4-tetraoxo-3-(trifluoromethyl)-5,6-dihydro-1λ^6,4λ^6-dithiine-2-carboxylate] | 100 | 100 | 2500 | 142 to 145 |  |  | 
CCOC(=O)C1=C(C(=O)OCC)S(=O)(=O)CCS1(=O)=O [compound 20, 2,3-diethyl 1,1,4,4-tetraoxo-5,6-dihydro-1λ^6,4λ^6-dithiine-2,3-dicarboxylate] |  | 100 |  | 154 to 156 |  |  | 1000
[O-][S+]1CCON=C1c1cc2ccccc2[s+]1[O-] (stereo not shown) [compound 14] |  |  |  |  | 100 | 100 | 1000
CCC1CS(=O)(=O)C(c2ccccc2)=C(c2ccccc2)S1(=O)=O (stereo not shown) [compound 16] |  |  |  |  | 80 | 100 | 4000
CC1=C(CS(=O)(=O)c2ccccc2)S(=O)(=O)CCS1(=O)=O [compound 22] |  |  |  |  | 100 | 100 | 1000
